The data set can be described thus: Administration test of triglyceride to rat: blood decanoic acid concentration. The conditions noted are these: in vivo, po. On the procedure:
Male SD rats aged 7 weeks (Japan SLC, Inc.) were kept using a TPX cage (W21.8×D37.3×H18.1 cm) with three rats or less/cage. The rats were fed ad libitum with solid feed “Labo MR stock” (Nosan Corporation.) sterilized with radiation throughout the feeding period, and fasted about 16 hours before the administration of a test fat and oil sample. The rats were fed ad libitum with distilled water as drinking water using a water supply bottle. The acclimation period was a week, and it was confirmed that abnormalities of general conditions were not observed on the final day of the acclimation period, and body weight was measured using an electronic scale (GX-3000; A & D Company, Limited). The rats were divided into 6 groups for each test fat and oil sample using a grouping software (Statlight; Yukms Co., Ltd.) so that the body weight of the groups was almost equal (6 rats in each group).
Each TG was orally administered in a single dose at 1 mL/body using a 1 mL disposable syringe and a disposable gastric tube for rats. […]
To the extracted lipid fraction, 2 ml of a 0.5 mol/L NaOH-methanol solution was added. […] The hexane layer was transferred to a vial, and used for GC (Agilent Technologies) in the conditions shown in Table 3, and the blood decanoic acid concentration was determined by the internal standard method. […]

As for `CCCCCCCCCC(=O)OCC(COC(=O)CCCCCCCCC)OC(=O)CCCCCCCCC` [TG1, tridecanoin], the “Blood decanoic acid concentration, average value” came to 124.4 µM.

For the origin of these results see patent US20240156773A1, “METHOD FOR INCREASING BLOOD DECANOIC ACID CONCENTRATION, BLOOD-DECANOIC-ACID-CONCENTRATION-INCREASING AGENT, PHARMACEUTICAL COMPOSITION, AND FOOD COMPOSITION” (The Nisshin OilliO Group, Ltd., priority 2021, published 2024).
